Measured values published in ChEMBL document CHEMBL1201862, “PubChem BioAssay data set” (2004).
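Results reflect a 48-hour exposure of cells in 96-well plates to compound at five concentrations. Here, GI50 denotes the concentration required for 50% inhibition of growth.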 Calls of active or inactive are those of the source. Rule as the data show it: active = GI50 up to about 1.1 µM and inactive = higher.

Assays:
Assay in all cases: growth of human tumour cells (NCI), 48 h
[1] = test system: 786-0
[2] = test system: A498
[3] = test system: A549
[4] = test system: ACHN
[5] = test system: BT-549
[6] = test system: CAKI-1
[7] = test system: CCRF-CEM
[8] = test system: COLO 205
[9] = test system: DU-145
[10] = test system: EKVX
[11] = test system: HCC 2998
[12] = test system: HCT-116
[13] = test system: HCT-15
[14] = test system: HL-60
[15] = test system: HOP-62
[16] = test system: HOP-92
[17] = test system: HT-29
[18] = test system: Hs-578T
[19] = test system: IGROV-1
[20] = test system: K562
[21] = test system: KM12
[22] = test system: LOX IMVI
[23] = test system: M14
[24] = test system: MCF7
[25] = test system: MDA-MB-231
[26] = test system: MDA-MB-435
[27] = test system: MDA-N
[28] = test system: MOLT-4
[29] = test system: Malme-3M
[30] = test system: NCI-H226
[31] = test system: NCI-H23
[32] = test system: NCI-H460
[33] = test system: NCI-H522
[34] = test system: NCI/ADR-RES
[35] = test system: OVCAR-3
[36] = test system: OVCAR-4
[37] = test system: OVCAR-5
[38] = test system: OVCAR-8
[39] = test system: PC-3
[40] = test system: RPMI-8226
[41] = test system: RXF 393
[42] = test system: SF-268
[43] = test system: SF-295
[44] = test system: SF-539
[45] = test system: SK-MEL-28
[46] = test system: SK-MEL-2
[47] = test system: SK-MEL-5
[48] = test system: SK-OV-3
[49] = test system: SN12C
[50] = test system: SNB-19
[51] = test system: SNB-75
[52] = test system: SR
[53] = test system: SW-620
[54] = test system: T47D
[55] = test system: TK-10
[56] = test system: U-251
[57] = test system: UACC-257
[58] = test system: UACC-62
[59] = test system: UO-31

O=C1c2ccccc2CC12Cc1ccc3c(c1C2)CCC3 (stereo not drawn)
GI50 [1]: 20.6 µM (inactive)
GI50 [2]: 85.3 µM (inactive)
GI50 [3]: 17.5 µM (inactive)
GI50 [4]: 22.6 µM (inactive)
GI50 [5]: 35.8 µM (inactive)
GI50 [6]: 26.8 µM (inactive)
GI50 [7]: 16.8 µM (inactive)
GI50 [8]: 19 µM (inactive)
GI50 [9]: 34.6 µM (inactive)
GI50 [10]: 16.9 µM (inactive)
GI50 [11]: 24.3 µM (inactive)
GI50 [12]: 16.9 µM (inactive)
GI50 [13]: 14.6 µM
GI50 [14]: 12.6 µM (inactive)
GI50 [15]: 23.3 µM (inactive)
GI50 [16]: 14 µM (inactive)
GI50 [17]: 13.3 µM (inactive)
GI50 [18]: 21 µM (inactive)
GI50 [19]: 25.5 µM (inactive)
GI50 [20]: 22.3 µM (inactive)
GI50 [21]: 24.4 µM (inactive)
GI50 [22]: 12.4 µM (inactive)
GI50 [23]: 19.1 µM (inactive)
GI50 [24]: 16.9 µM (inactive)
GI50 [25]: 12 µM (inactive)
GI50 [26]: 16.1 µM (inactive)
GI50 [27]: 19.8 µM (inactive)
GI50 [28]: 23.8 µM (inactive)
GI50 [29]: 13.6 µM (inactive)
GI50 [30]: 22.8 µM (inactive)
GI50 [31]: 28.8 µM (inactive)
GI50 [32]: 23.7 µM (inactive)
GI50 [33]: 4.54 µM (inactive)
GI50 [34]: 4.24 µM (inactive)
GI50 [35]: 17.4 µM (inactive)
GI50 [36]: 22.2 µM (inactive)
GI50 [37]: 17.2 µM (inactive)
GI50 [38]: 28.8 µM (inactive)
GI50 [39]: 26 µM (inactive)
GI50 [40]: 19 µM (inactive)
GI50 [41]: 16.4 µM (inactive)
GI50 [42]: 30 µM (inactive)
GI50 [43]: 25.4 µM (inactive)
GI50 [44]: 27.5 µM (inactive)
GI50 [45]: 31 µM (inactive)
GI50 [46]: 15.9 µM (inactive)
GI50 [47]: 15.5 µM (inactive)
GI50 [48]: 33.3 µM (inactive)
GI50 [49]: 26.7 µM (inactive)
GI50 [50]: 48.1 µM (inactive)
GI50 [51]: 20.3 µM (inactive)
GI50 [52]: 14 µM (inactive)
GI50 [53]: 30.5 µM (inactive)
GI50 [54]: 19.1 µM (inactive)
GI50 [55]: 2.36 µM (inactive)
GI50 [56]: 16.9 µM (inactive)
GI50 [57]: 11.7 µM (inactive)
GI50 [58]: 20.3 µM (inactive)
GI50 [59]: 23.4 µM (inactive)

O=C(OC(/C=C/c1ccccc1)P1(=O)N(Cc2ccccc2)[C@@H]2CCCC[C@H]2N1Cc1ccccc1)c1ccccc1 (stereo partly drawn)
GI50 [1]: 4.38 µM (inactive)
GI50 [2]: 5.73 µM (inactive)
GI50 [3]: 3.94 µM (inactive)
GI50 [4]: 3.81 µM (inactive)
GI50 [5]: 4.26 µM (inactive)
GI50 [6]: 3.56 µM (inactive)
GI50 [7]: 2.52 µM (inactive)
GI50 [8]: 2.04 µM (inactive)
GI50 [9]: 6.75 µM (inactive)
GI50 [10]: 4.56 µM (inactive)
GI50 [11]: 4.9 µM (inactive)
GI50 [12]: 2.87 µM (inactive)
GI50 [13]: 3.44 µM
GI50 [14]: 2.79 µM (inactive)
GI50 [15]: 5.38 µM (inactive)
GI50 [16]: 2.08 µM (inactive)
GI50 [17]: 3.4 µM (inactive)
GI50 [18]: 6.67 µM (inactive)
GI50 [19]: 2.9 µM (inactive)
GI50 [20]: 3.37 µM (inactive)
GI50 [21]: 3.57 µM (inactive)
GI50 [22]: 3.57 µM (inactive)
GI50 [23]: 3.69 µM (inactive)
GI50 [24]: 3.52 µM (inactive)
GI50 [25]: 2.82 µM (inactive)
GI50 [26]: 3.66 µM (inactive)
GI50 [27]: 3.8 µM (inactive)
GI50 [28]: 2.15 µM (inactive)
GI50 [29]: 3.54 µM (inactive)
GI50 [30]: 6.43 µM (inactive)
GI50 [31]: 3.09 µM (inactive)
GI50 [32]: 2.91 µM (inactive)
GI50 [33]: 3.17 µM (inactive)
GI50 [34]: 2.74 µM (inactive)
GI50 [35]: 3.93 µM (inactive)
GI50 [36]: 4.22 µM (inactive)
GI50 [37]: 4.43 µM (inactive)
GI50 [38]: 3.29 µM (inactive)
GI50 [39]: 3.16 µM (inactive)
GI50 [40]: 2.21 µM (inactive)
GI50 [41]: 3.78 µM (inactive)
GI50 [42]: 6.37 µM (inactive)
GI50 [43]: 4.09 µM (inactive)
GI50 [44]: 3.17 µM (inactive)
GI50 [45]: 9.82 µM (inactive)
GI50 [46]: 2.25 µM (inactive)
GI50 [47]: 3.14 µM (inactive)
GI50 [48]: 5.06 µM (inactive)
GI50 [49]: 3.03 µM (inactive)
GI50 [50]: 5.43 µM (inactive)
GI50 [51]: 3.18 µM (inactive)
GI50 [52]: 2.81 µM (inactive)
GI50 [53]: 4.57 µM (inactive)
GI50 [54]: 4.43 µM (inactive)
GI50 [55]: 4.82 µM (inactive)
GI50 [56]: 3.79 µM (inactive)
GI50 [57]: 3.07 µM (inactive)
GI50 [58]: 5.3 µM (inactive)
GI50 [59]: 3.34 µM (inactive)
